Experimental data from patent US9663454B2, “3-aryl propiolonitrile compounds for thiol labeling” (Universite de Strasbourg, priority 2013, dated 2017).
“Also recorded” adds a separate entry of the source. Marks after values point to notes of the source that are not given here.

Legend:
[1] = Labeling of a cysteine derivative: conversion of arylpropiolonitriles 1-12 with AcCysNHBn, HPLC; details: 50 μM of each reagent, 25° C., PBS pH 7.6
Protocol: To a vial containing 985 μL of PBS (1×, pH 7.6), were subsequently added 5 μL of the stock solution of benzamide (10 mM in water), 5 μL of the stock solution of arylpropiolonitrile (1-12, 10 mM in DMSO) and 5 μL of stock solution of AcCysNHBn (7 m, 10 mM in DMSO). […] Areas under the peaks of the starting materials and hydrolysis products were normalized according to the area of the peak of the internal standard.
Obtained results are summed up in table 2 below, which presents the conversion of the compounds 1-12 in 30 minutes in presence of 7m at 50 μM concentration of each reagent and 25° C. The reaction is extremely sensitive to steric hindrances induced by substituents in ortho-position to propiolonitrile group (entries 1, 5, 8-9, 4) as well as to electronic effect of the substituent: −I and −M substituents increase (entries 10 and 12), while +M substituents decrease the reactivity of the compound (entries 3 and 7).

[2] = Selectivity screening of electrophiles, whole panel of amino acid models; details: 1 hour, PBS (1×, pH 7.6), 1 mM reagents
Protocol: Screening for selectivity was done on benzylamides of non-protected amino acids. 100 mM stock solutions of benzylamides of amino acids (in form of TFA salts) and electrophiles (phenylpropiolonitrile and phenylmaleimide) were prepared in DMSO and stored at −20° C. A 100 mM stock solution of benzamide (used as an internal standard) was prepared in distilled water and stocked at −20° C. Analyses of reaction mixtures were conducted with Shimadzu LC with SunFire™ C18 5 μM 4.6×150 mm column (Waters). HPLC parameters were as follows: flow rate 1 mL/min, gradient from 5 to 95% of mobile phase B from 0 to 20 min, followed by 5 min at 95% of mobile phase and post time of 5 min. Mobile phase A was 0.05% TFA in water (mQ) (v/v), and mobile phase B was acetonitrile (HPLC grade). Data were analyzed using Shimadzu analysis software. Signals were normalized according to the area of the peak of the internal standard (benzamide). […]
10 μL of the stock solution of amino acid benzamide and 2.5 μL of the stock solution of benzamide were added to a vial containing 977.5 μL of PBS (1×, pH 7.6). […] Aliquots of the reaction mixture (50 μL) were analyzed by HPLC for 1 hour of hydrolysis (injections at 0, 30 and 60 min). […] Masses of corresponding adducts were detected by mass spectrometry (ESI-LCMS) in some cases (shown in bold, Table 4).

[3] = Selectivity screening of electrophiles on amino acid benzylamides, HPLC; details: in 1 hour in PBS (1×, pH 7.6) in presence of the electrophile, 1 mM reagents
Protocol: Screening for selectivity was done on benzylamides of non-protected amino acids. 100 mM stock solutions of benzylamides of amino acids (in form of TFA salts) and electrophiles (phenylpropiolonitrile and phenylmaleimide) were prepared in DMSO and stored at −20° C. A 100 mM stock solution of benzamide (used as an internal standard) was prepared in distilled water and stocked at −20° C. Analyses of reaction mixtures were conducted with Shimadzu LC with SunFire™ C18 5 μM 4.6×150 mm column (Waters). HPLC parameters were as follows: flow rate 1 mL/min, gradient from 5 to 95% of mobile phase B from 0 to 20 min, followed by 5 min at 95% of mobile phase and post time of 5 min. Mobile phase A was 0.05% TFA in water (mQ) (v/v), and mobile phase B was acetonitrile (HPLC grade). Data were analyzed using Shimadzu analysis software. Signals were normalized according to the area of the peak of the internal standard (benzamide). Areas under the peaks of the amino acid benzylamides were used to calculate their conversion during reaction.
10 μL of the stock solution of amino acid benzamide and 2.5 μL of the stock solution of benzamide were added to a vial containing 977.5 μL of PBS (1×, pH 7.6). The solution was stirred and 10 μL of the stock solution of electrophile were added to give 1 mM final concentrations of reagents and 0.25 mM concentration of benzamide. Aliquots of the reaction mixture (50 μL) were analyzed by HPLC for 1 hour of hydrolysis (injections at 0, 30 and 60 min). Areas under the peaks of the starting materials and hydrolysis products were normalized according to the area of peak of the internal standard. In case of phenylpropiolonitrile, none of amino acid models gave more than 1.6% conversion (see table 3 below). […] Masses of corresponding adducts were detected by mass spectrometry (ESI-LCMS) in some cases (shown in bold, Table 4).

Trastuzumab [4] = assay: Rebridging of antibody fragments, SDS-PAGE in reducing conditions; details: Trastuzumab reduced with 5 eq. TCEP, 15 eq. compound, 16 h at 25° C.
Protocol: To the solution of Trastuzumab (100 uL, 10 mg/mL in 50 mM PBS pH 7.4 with 10 mM of EDTA) was added the solution of TCEP (10 mM in water, 5 eq.). The mixture was incubated at 37° C. for 2 h and then the solution of 33 or 34 (10 mM in DMSO, 15 eq.) was added. The resulting solution was incubated for 16 h at 25° C. and then analyzed by SDS-PAGE in reducing conditions.

Trastuzumab [5] = assay: Conjugation of Trastuzumab and TAMRA-SH via linker, SDS-PAGE and native ESI-MS
Protocol: To the solution of Trastuzumab (100 uL, 10 mg/mL in 50 mM borate buffer pH 8.5) was added 1.74 uL of the solution of 18 (10 mg/mL in DMSO). After incubation for 1 h at 25° C. was added 0.69 uL of TAMRA-SH (100 mM in DMSO). The mixture was incubated at 25° C. for 16 h and the conjugate was purified by size exclusion chromatography.
The comparison experiment was carried out using 4-(N-maleimidomethyl)cyclohexanecarboxylic acid N-hydroxysuccinimide ester (SMCC) instead of 18.

[6] = Stability of the addition product in different working solutions, HPLC; type: physicochemical; details: for Conversion of “addition product” in 1 h: 100 μM, 25° C.
Protocol: A 100 mM stock solution of the “addition product”
[drawing 113] was prepared in DMSO and stored at −20° C. 1 μL of the stock solution was added to 999 μL of working solutions to give 100 μM final concentration of substrate. Aliquots were analyzed at 0, 30 and 60 min. Areas under peak of starting material were normalized according to the area of the peak of the internal standard (benzamide). All measurements were carried at 25° C.

[7] = test system: partially reduced Trastuzumab; assay: Direct conjugation to partially reduced Trastuzumab, SDS-PAGE and ESI-MS
Protocol: To the solution of Trastuzumab (100 uL, 10 mg/mL in 50 mM PBS pH 7.4 with 10 mM of EDTA) was added the solution of TCEP (10 mM in water, 1.1 or 2.2 eq.). The mixture was incubated at 37° C. for 2 h and then the solution of 58 (8.25 μL, 10 mM in DMSO) was added. The mixture was incubated at 25° C. for 16 h and the conjugate was purified by size exclusion chromatography.

[8] = Hydrolytic stability in PBS, HPLC monitoring; type: physicochemical
Protocol: FIG. 3a-3b: HPLC monitoring of the hydrolysis of phenylmaleimide (2) in PBS (1×, pH 7.6) at 1 mM concentration at 25° C.; the peaks correspond, from the earliest to the latest, to
[drawing 5] conversion was monitored by disappearance of the starting material (a). Pseudo first order rate constant for the reaction was determined by plotting the ln([phenylmaleimide]) versus time and analyzing by linear regression. The constant corresponds to the absolute value of determined slope (b).
FIG. 4: HPLC monitoring of hydrolytic stability of N-(4-(cyanoethynyl)phenyl)acetamide (pNHAc-APN, 11) in PBS (1×, pH 7.6) at 1 mM concentration at 25° C. Conversion was monitored by disappearance of the starting material; the peaks correspond, from the earliest to the latest, to
To a vial containing 980 μL of PBS (1×, pH 7.6), were subsequently added 10 μL of a stock solution of benzamide and 10 μL of a stock solution of electrophile (phenylmaleimide 1 or
[drawing 112] 11) to give final concentration of 1 mM (both internal standard and electrophile). Aliquots of the reaction mixture (50 μL) were analyzed by HPLC for 5 hours of hydrolysis (injection every 30 min). Areas under the peaks of the starting materials and hydrolysis products were normalized according to the area of the peak of the internal standard.

[9] = conversion of the compound in 30 minutes in presence of 7m
[10] = conversion in 60 minutes in presence of 7m

## CNC(=O)c1ccc(C#CC#N)cc1 [Compound 12, 4-(Cyanoethynyl)-N-methylbenzamide]
[1]; [9]
  Conversion: 85.5%

## N#CC#Cc1ccccc1[N+](=O)[O-] [Compound 10, 3-(2-Nitrophenyl)propiolonitrile]
[1]; [9]
  Conversion: 70.4%*

## N#CC#Cc1ccccc1 [phenylpropiolonitrile]
[2]
  highest conversion among the amino acid models other than cysteine: ≤ 1.6%
[3]
  Conversion of AlaNHBn (7c): 0.1%
  Conversion of ArgNHBn (7k): 0.4%
  Conversion of AspNHBn (7l): 0.6%
  Conversion of CysNHBn (7a): 98%
  Conversion of GlnNHBn (7i): 0.1%
  Conversion of GlyNHBn (7b): 0.2%
  Conversion of HisNHBn (7h): 0.6%
  Conversion of MetNHBn (7f): 0.1%
  Conversion of SerNHBn (7e): 0.3%
  Conversion of TrpNHBn (7j): 1.3%
  Conversion of TyrNHBn (7g): 1.6%
  Conversion of ValNHBn (7d): 0.7%

## N#CC#Cc1ccccc1N [Compound 5, 3-(2-Aminophenyl)propiolonitrile]
[1]; [9]
  Conversion: 10.8%

## COc1cccc(C#CC#N)c1 [Compound 2, 3-(3-Methoxyphenyl)propiolonitrile]
[1]; [9]
  Conversion: 46.8%

## N#CC#Cc1cccc(C#CC#N)c1 [Compound 34, 3,3′-(1,3-Phenylene)dipropiolonitrile]
Trastuzumab [4]
  bridging of antibody fragments (in words): successfully bridged

## COc1ccc(C#CC#N)cc1 [Compound 3, 3-(4-Methoxyphenyl)propiolonitrile]
[1]; [9]
  Conversion: 14.6%

## N#CC#Cc1ccc(C(=O)Oc2c(F)c(F)c(S(=O)(=O)O)c(F)c2F)cc1 [Compound 18, Sodium 4-((4-(cyanoethynyl)benzoyl)oxy)-2,3,5,6-tetrafluorobenzenesulfonate]
Trastuzumab [5]; SDS-PAGE, Trastuzumab + TAMRA-SH, versus SMCC
  level of conjugation (in words): higher levels of conjugation comparing to SMCC
Trastuzumab [5]; native ESI-MS of the conjugate
  molecules of TAMRA conjugated per antibody, in average: one
  population of conjugates (in words): cleaner population of conjugates

## COc1cccc(OC)c1C#CC#N [Compound 4, 3-(2,6-Dimethoxyphenyl)propiolonitrile]
[1]; [10]
  Conversion: 4.8%**

## N#CC=C(SCC(N)C(=O)NCc1ccccc1)c1ccccc1 (stereo not drawn) [addition product]
[6]; 100 mM PhSH in PBS(7.4):DMSO = 80:20
  Conversion of “addition product” in 1 h: 0.7%
[6]; 1M Glutathione reduced (GSH) in PBS (7.4)
  Conversion of “addition product” in 1 h: 0.4%
[6]; 1M H2O2
  Conversion of “addition product” in 1 h: 1.8%
[6]; 1M HCl (pH = 0)
  Conversion of “addition product” in 1 h: 0.1%
[6]; 1M Imidazole in PBS (7.4)
  Conversion of “addition product” in 1 h: 0.5%
[6]; 1M NaOH (pH = 14)
  Conversion of “addition product” in 1 h: 3.4%
[6]; 1 hour with an excess of phenylthiol or glutathione
  thiol exchange (in words): no exchange product could be observed; also recorded: hardly any thiol exchange is observed
[6]; wide range of conditions, pH from 0 to 14
  stability (in words): stable in a wide range of pH (from 0 to 14); also recorded: stable and undergoes very little degradation in a wide range of conditions

## Cc1ccccc1C#CC#N [Compound 8, 3-(o-Tolyl)propiolonitrile]
[1]; [9]
  Conversion: 10.3%

## CN(C)c1ccc2c(-c3cc(C(=O)NCc4cn(-c5ccc(C#CC#N)cc5)nn4)ccc3C(=O)[O-])c3ccc(=[N+](C)C)cc-3oc2c1 [Compound 58, 4-(((1-(4-(cyanoethynyl)phenyl)-1H-1,2,3-triazol-4-yl)methyl)carbamoyl)-2-(6-(dimethylamino)-3-(dimethyliminio)-3H-xanthen-9-yl)benzoate]
[7]; ESI-MS, 2.2 eq. of TCEP
  molecules conjugated per antibody, in average: 4
[7]; SDS-PAGE of the conjugates
  attachment to the antibody (in words): covalently attached to the antibody

## N#CC#Cc1ccc(N)cc1 [Compound 7, 3-(4-Aminophenyl)propiolonitrile]
[1]; [9]
  Conversion: 7.4%

## Cc1cccc(C)c1C#CC#N [Compound 9, 3-(2,6-Dimethylphenyl)propiolonitrile]
[1]; [10]
  Conversion: 2.3%**

## N#CC#Cc1ccccc1C#CC#N [Compound 33, 3,3′-(1,2-Phenylene)dipropiolonitrile]
Trastuzumab [4]
  bridging of antibody fragments (in words): successfully bridged

## COc1ccccc1C#CC#N [Compound 1, 3-(2-Methoxyphenyl)propiolonitrile]
[8]; PBS (1×, pH 7.6), 1 mM, 25° C.
  kobs (pseudo first order rate constant of hydrolysis): 7e-05 s⁻¹
[8]; after 1 h in buffer solution
  hydrolyzed: approximately 25%
[1]; [9]
  Conversion: 10.1%

## N#CC#Cc1cccc(N)c1 [Compound 6, 3-(3-Aminophenyl)propiolonitrile]
[1]; [9]
  Conversion: 42.0%

## O=C(ON1C(=O)CCC1=O)C1CCC(CN2C(=O)C=CC2=O)CC1 (stereo not drawn) [SMCC, 4-(N-maleimidomethyl)cyclohexanecarboxylic acid N-hydroxysuccinimide ester, reference compound]
Trastuzumab [5]; native ESI-MS of the conjugate
  population of conjugates (in words): complex mixture of undistinguishable species

## CC(=O)Nc1ccc(C#CC#N)cc1 [Compound 11, N-(4-(Cyanoethynyl)phenyl)acetamide]
[8]; PBS (1×, pH 7.6), 1 mM, 25° C., up to 5 hours of monitoring
  hydrolysis (in words): no hydrolysis could be detected; also recorded: No detectable conversion; also recorded: no detectable change in concentration
[8]; after a week at room temperature
  hydrolysis (in words): no trace of hydrolyzed product could be detected
[1]; [9]
  Conversion: 52.3%
